One series deals with rat eyes. In words: Tolerability of intravitreally injected DMSO in rat eyes. It is filed as in vivo. Particulars: intravitreal, 3 μl, 60%, 1/10 and 1/100 dilution, monitored two weeks. As for the experimental part:
In order to test the tolerability of DMSO in eye, DMSO (USP, Ph. Eur.) was injected to the rat eyes intravitreally using 34 G needle The injected volume was 3 μl and three concentrations were injected; 60%, 1/10 dilution, 1/100 dilution. Used Ph. Eur. grade DMSO was 0.2 μm Filter sterilized in Class 5 isolator before the injection.
The rats were monitored for two weeks using the following endpoints: • fundus imaging, including blood vessels • cloudiness and other symptoms in the anterior part of the eye • optic nerve head • state of the vasculature in the posterior eye segment (FAG) • ERG • intraocular pressure • retinal thickness with OCT • histology (in the end)

Series [1] can be described thus: Chemical stability of latanoprost in HBSS-buffer. As to conditions: HBSS-buffer pH 7.4, +37° C., 48 h. It is filed as physicochemical. On the procedure:
Chemical stability of latanoprost was studied simultaneously in HBSS-buffer, pH 7.4, using the same protocol but replacing the vitreous with the buffer.
(§1) Hydrolysis of latanoprost was evaluated in buffer and in vitreous with pH adjusted to 7.4.

Series [2] can be described thus: Hydrolysis of latanoprost to latanoprost acid in porcine vitreous. Type of series: in vitro ADME. As for the experimental part:
Porcine vitreous was mixed with Hanks' balanced salt solution containing 50 mM Hepes (HBSS-buffer, pH 7.4) at and vitreous mix (200 μl) was pipetted to 96-well plates. The plates were incubated at +37° C. and 5% CO2 with mild shaking for one hour to equilibrate the pH of vitreous into neutral range (pH 7.3-7.5). After incubation, 50 μl of 50 μg/mL latanoprost was added to plates and mixed. The final vitreous/buffer ratio was 1:1 and latanoprost concentration 10 μg/mL Latanoprost was incubated in vitreous at +37° C. and 5% CO2 with mild shaking and samples were collected at time points (0, 1, 2, 4, 6, 24, 29, 48 hours). At each time point the 150 μl of the sample was mixed by vortexing with the 150 μl acetonitrile. The samples were stored at −20° C. until HPLC analysis.
as §1
First hydrolysis of latanoprost was evaluated in buffer and in vitreous with pH adjusted to 7.4 and non pH adjusted.

A short description of series [3]: Drug release from implant in porcine vitreous vs. PBS. As to conditions: 35.5° C., 35% PLGA9010/60% DMSO/4% b-HPCD, 180 μg latanoprost. As for the experimental part:
These tests were carried out to ensure that the latanoprost released from the implant would go through hydrolysis to latanoprost acid, which is the active form of the molecule. Purpose of this study was also study the conversion rate of latanoprost to latanoprost acid. In addition, the release of latanoprost from ReBio test formulations was evaluated in vitreous vs. in PBS.
Next the drug release from implant was also tested in porcine vitreous vs. PBS(=phosphate buffered saline).
Formulation composition in this example was 35% PLGA9010/60% DMSO/4% b-HPCD—180 μg Latanoprost.

Series [4] is described as follows: Solubility of regorafenib in water and PBS. It is filed as physicochemical. As for the experimental part:
Solubility of regorafenib in water and PBS is negligible. Thus, Tween80 was added in PBS to increase solubility in the dissolution media. Regorafenib in vitro release studies from PGLA/DMSO ISFI were carried out in sink conditions, 2-5 ml PBS pH 7.2 (+Tween80 0.05%) in plastic and glass vessels at 35.5° C. (estimated at 10 mm depth in eye) and 60 rpm, orbit 61 mm in dark.

On to `C[S+](C)[O-]` [DMSO, dimethylsulfoxide], for which the “adverse effects in eye” value with rat eyes is “No adverse effect”.
As to `CC(C)OC(=O)CCC/C=C\C[C@@H]1[C@@H](CC[C@@H](O)CCc2ccccc2)[C@H](O)C[C@@H]1O` [latanoprost, Latanoprost], the “latanoprost acid formation in mere buffer” value in series [1] is given as “No latanoprost acid was formed”. Besides, the “amount of latanoprost acid in vitreous over time” value in series [2] (porcine vitreous, 48 h experiment) is reported as “steadily increased”. Also, in series [2] (porcine vitreous/HBSS buffer 1:1, pH adjusted to 7.4, +37° C., latanoprost 10 μg/mL, 48 h), the “rate constant of latanoprost acid formation in vitreous (zero-order kinetics)” value is 0.111 µg/h. Further, in series [3], the “conversion of released latanoprost to acid form in PBS” value was “did not change to its acid form”.
As for `CNC(=O)c1cc(Oc2ccc(NC(=O)Nc3ccc(Cl)c(C(F)(F)F)c3)c(F)c2)ccn1` [regorafenib, Regorafenib], the “solubility in water and PBS” value in series [4] is recorded as “negligible”.
